The conditions of data set [1]: MA (20 mg), cited from earlier work; for Concentration in Saliva: maximum concentration in oral fluid.
The nature of data set [2]: Cocaine and metabolites in human oral fluid and plasma following controlled administration (Scheidweiler et al.). An excerpt: (§1) While pharmacokinetic profile is specific to each individual drug, there are multiple challenges with immunoassay-based roadside drug testing. Current hand-held immunoassays drug testing devices from saliva detect the metabolites of the drugs in question. One challenge with metabolite testing is that depending on the drug and on the mode of administration, there may be delays in the detectability of the drug from the time of ingestion to the test time. For example, in the case of methylenedioxy-methamphetamine (MDMA) detection, the time to maximum concentration of (tmax) of MDMA is 2.8 hours, while for its main metabolite, methylenedioxyamphetamine (MDA), the tmax increases to 4.8 hours. […] This makes metabolite detection very challenging.

For data set [3] the following is noted: Cocaine (75 mg subcutaneous), cited from earlier work.
A short description of data set [4]: Methamphetamine disposition in oral fluid and plasma (Huestis et al.).
Description: as §1

Data set [5] in a line: Oral fluid and plasma MDMA and metabolite after controlled oral MDMA administration (Desrosiers et al.). Particulars: MDMA (75 mg); for Kp: human, saliva (oral fluid) / plasma, read-out: Ratio Saliva/Blood. Type of data set: in vivo, human. An excerpt: This makes metabolite detection very challenging.
For data set [6] the following is noted: MDMA (75 mg), oral, cited from earlier work; for Concentration in Saliva: maximum concentration in oral fluid.
For data set [7] the following is noted: after MDMA; cited from earlier work.
Data set [8] in a line: THC and metabolite concentrations in oral fluid and whole blood after smoking a cannabis joint (Fabritius et al.).
Description: as §1

For data set [9] the following is noted: cited from earlier work; for Cmax in blood or plasma / Concentration in Saliva: THC (40 mg); for Concentration in Saliva: maximum concentration in oral fluid.
The conditions of data set [10]: cited from earlier work.
[11] abbreviates: Cocaine (75 mg subcutaneous), cocaine vs BE + EME.

Where two headings read alike, the source gives them in different places.

With `CC(N)Cc1ccccc1` (stereo not drawn) [A], the “Concentration in Saliva” value in data set [1] is reported as 14 ng/mL.

As to `COC(=O)[C@H]1[C@@H](OC(=O)c2ccccc2)C[C@@H]2CC[C@H]1N2C` [Cocaine, cocaine], in data set [2] (setting [11]), the “Ratio Parent:Metabolite, Cmax in blood or plasma” value (“Ratio Parent:Metabolite, Cmax” below) is 0.8 and the “Ratio Parent:Metabolite, concentration in saliva” value is 4.1. Besides, the Kp in [2] (human, saliva (oral fluid) / plasma, sc, 75 mg) is 3.6. For the same molecule, in [3], the “Cmax in blood or plasma” value is recorded as 305 ng/mL. Further, in data set [3] (maximum concentration in oral fluid), the “Concentration in Saliva” value is on record as 1092 ng/mL.

As to `CN[C@@H](C)Cc1ccccc1` [MA, methamphetamine], in data set [4] (MA (20 mg), MA vs A), the “Ratio Parent:Metabolite, Cmax” value was 5.3 and the “Ratio Parent:Metabolite, concentration in saliva” value worked out at 13.7. The same molecule returned a Kp in [4] (human, saliva (oral fluid) / plasma, 20 mg) of 6. In addition, in data set [1], the “Cmax in blood or plasma” value is reported as 32 ng/mL and the “Concentration in Saliva” value is given as 192 ng/mL.

Consider `CC(N)Cc1ccc2c(c1)OCO2` (stereo not drawn) [MDA, methylenedioxyamphetamine], for which the Kp in [5] stood at 5.8. Moreover, in data set [6], the “Cmax in blood or plasma” value is recorded as 7 ng/mL and the “Concentration in Saliva” value is on record as 41 ng/mL. In [7], the “time to maximum concentration (tmax)” value was 4.8 h.

With `CNC(C)Cc1ccc2c(c1)OCO2` (stereo not drawn) [MDMA, methylenedioxy-methamphetamine], the “Ratio Parent:Metabolite, concentration in saliva” value in data set [5] (MDMA vs MDA) is listed as 40. Further, the Kp in data set [5] worked out at 11. Besides, in [6], the “Cmax in blood or plasma” value is reported as 150 ng/mL and the “Concentration in Saliva” value is listed as 1643 ng/mL. Further, the “time to maximum concentration (tmax)” value in data set [7] was 2.8 h.

`CCCCCc1cc(O)c2c(c1)OC(C)(C)[C@@H]1CCC(C)=C[C@@H]21` [THC, Δ9-tetrahydrocannabinol]: in data set [8] (THC (40 mg), THC vs THC-COOH), the “Ratio Parent:Metabolite, Cmax” value was 2.1 and the “Ratio Parent:Metabolite, concentration in saliva” value came out at 2120. For the same molecule, the Kp in [8] (human, saliva (oral fluid) / whole blood, inhaled, 40 mg) is 7.3. In data set [9], the “Cmax in blood or plasma” value is 87 ng/mL and the “Concentration in Saliva” value is reported as 636 ng/mL. Further, the “THC concentration in saliva relative to main metabolite THC-COOH (times higher)” value in data set [9] (in one study, saliva) is reported as approximately 2000 ×. Also, in data set [10] (THC ingested from food, saliva), the “time over which saliva THC concentration decreases slowly after consumption” value was “about 24 hours”. Besides, the “THC concentration in saliva after being ingested from food versus same amount of smoked THC” value in [10] (first 15 minutes, saliva) is “about ten times lower”. In data set [10] (smoked or vaped THC), the “rapid decay after maximum concentration” value was 1 to 2 h; the “time to peak effect and maximum concentration” value is given as “seconds or minutes”.

For the molecule `CCCCCc1cc(O)c2c(c1)OC(C)(C)[C@@H]1CCC(C(=O)O)=C[C@@H]21` [THC-COOH], the “Ratio Saliva/Blood” value in data set [8] (THC (40 mg)) amounted to 0.007. Moreover, in [9], the “Cmax in blood or plasma” value is given as 41 ng/mL and the “Concentration in Saliva” value is reported as 0.3 ng/mL.

(Values after US11493451B2, “Colorimetric drug test strip using porous support material” (Palo Alto Research Center Incorporated, priority 2019, dated 2022).)
